Where two headings read alike, the source gives them in different places.
Key:
Assay type in all cases: cell-based
Insulin Receptor = biological target: T1, Insulin Receptor (Homo sapiens, UniProt P06213); test: Cellular Insulin Receptor ELISA
T1 construct: host or cells: H25 (NIH3T3)
Protocol: Cellular Insulin Receptor ELISA (Version I)
The following protocol describes the cell line, reagents and procedures used to measure phosphotyrosine level on Insulin Receptor, which indicates Insulin Receptor tyrosine kinase activity.
(2). H25 cells are grown in an incubator with 5% CO2 at 37° C. The growth media is DMEM+10% FBS (heat inactivated)+2 mM L-Glutamine.
(3). For ELISA plate coating, the monoclonal anti-IR antibody named BBE is used. Antibodies are purified by the Enzymology Lab, SUGEN, Inc.
(2). […] Incubate for 1 day then replace medium to 0.01% serum medium (90/ul) and incubate in 5% CO2 and 37° C. overnight.
(§1) 2. ELISA Plate Coating and Blocking
(§2) (2). Remove the coating solution, and replace with 100 ul Blocking Buffer, and shake for 30 minutes. Remove the blocking buffer and wash the plate just before adding lysate.
(§3) (1). The drugs are tested in serum-free condition.
(2). Dilute drug stock (in 100% DMSO) 1:10 with DMEM in 96-well poly-propylene plate, and transfer 10 ul/well of this solution to the cells to achieve final drug dilution 1:100, and final DMSO concentration of 1.0%. Incubate the cells in 5% CO2 at 37° C. for 2 hours.
(3). Prepare fresh cell lysis buffer (HNTG*) HNTG 2 ml EDTA 0.1 ml Na3VO4 0.1 ml Na4P2O7 0.1 ml H20 7.3 ml HNTG* 10 ml.
(4). After drug incubation for two hours, transfer 10 ul/well of 1 μM Insulin in PBS to the cells (Final Conc=100 nM), and incubate at 5% CO2 at 37° C. for 10 minutes.
(5). Remove media and add 100ul/well HNTG* and shake for 10 minutes. Look at cells under microscope to see if they are adequately lysed.
(§4) (6). Use a 12-channel pipette to scrape the cells from the plate, and homogenize the lysate by repeat aspiration and dispense. Transfer all the lysate to the antibody coated ELISA plate [V.2.(2)], and shake for 1 hour.
(§5) (7). Remove the lysate, wash the plate, transfer anti-pTyr (1:3,000 with TBST) 100 ul/well, and shake for 30 minutes.
(8). Remove anti-pTyr, wash the plate, transfer detection antibody (1:3,000 with TBST) 100 ul/well, and shake for 30 minutes.
(9). […]

IGF-1R = biological target: T2, IGF-1R (Homo sapiens, UniProt P08069); test: Cellular IGF-1 Receptor ELISA
T2 construct: expressed in transfected cells; host or cells: 3T3/IGF-1R
Protocol: Cellular IGF-1 Receptor ELISA (Version I)
(1). The cell line used in this assay is 3T3/IGF-1R, a cell line which overexpresses IGF-1 Receptor.
(2). 3T3/IGF-1 R is grown in an incubator with 5% CO2 at 37° C. The growth media is DMEM+10% FBS (heat inactivated)+2 mM L-Glutamine.
(3). For ELISA plate coating, the anti-IGF-1 R antibody named 17-69 is used. Antibodies are purified by the Enzymology Lab, SUGEN, Inc.
(10). Insulin-like growth factor-1 from Promega (Cat# G5111).
(2). […] Incubate for 1 day then replace medium to serum-free medium (90/ul) and incubate in 5% CO2 and 37° C. overnight.
as §1, §2, §3
(2). Dilute drug stock (in 100% DMSO) 1:10 with DMEM in 96-well poly-propylene plate, and transfer 10 ul/well of this solution to the cells to achieve final drug dilution 1:100, and final DMSO concentration of 1.0%. Incubate the cells in 5% CO2 at 37° C for 2 hours.
(3). Prepare fresh cell lysis buffer (HNTG HNTG 2 ml EDTA 0.1 ml Na3VO4 0.1 ml Na4P207 0.1 ml H20 7.3 ml HNTG* 10 ml.
(4). After drug incubation for two hours, transfer 10 ul/well of 200 nM IGF-1 Ligand in PBS to the cells (Final Conc=20 nM), and incubate at 5% CO2 at 37° C. for 10 minutes.
(5). Remove media and add 100 ul/well HNTG* and shake for 10 minutes. Look at cells under microscope to see if they are adequately lysed.
as §4, §5
(7). Remove anti-pTyr, wash the plate, transfer detection antibody (1:3,000 with TBST) 100 ul/well, and shake for 30 minutes.
(8). Remove detection antibody, wash the plate, and transfer fresh ABTS/H2O2 (1.2 ul H2O2 to 10 ml ABTS) 100 ul/well to the plate to start color development.
(9). Measure OD (410 nm) in Dynatec MR5000, which is connected to Ingres.

[1] = test system: MCF7 human breast carcinoma cells; test: MCF-7 SRB Growth Assay; conditions: read-out: GROWTH DATA: MCF7 10% FBS
Excerpt: The following examples illustrate the ability of the exemplary compounds to inhibit receptor tyrosine kinases, such as HER2 and/or EGFR. The following target cells were used for cellular kinase assays: NIH3T3 clone C7 (Honegger et al., supra) engineered to over-express human EGF receptor; NIH3T3 cells engineered to over-express a chimeric receptor containing the EGFR extracellular domain and the HER2 intracellular kinase domain; the human mammary carcinoma line BT474 (ATCC HTB2) expressing HER2; and the human glioblastoma line U1242 that expresses PDGFR-beta. Growth assays were carried out using human mammary epithelial SKBR3 (ATCC HTB30) cells (SKBR3 cells over-express HER2), SKOV3 (ATCC HTB77) human ovarian cancer cell line (SKOV3 cells also over-express HER2), A431 cells (A431 cells over-express EGFR) MCF7 human breast carcinoma cells, MCF7 cells overexpressing the HER2 kinase (MCF7-HER2), NIH3T3 cells, and NIH3T3 cells overexpressing the HER2 kinase (3T3-HER2.
MCF-7 cells are seeded at 2000 cells/ well in a 96-well flat bottom plate in normal growth media, which was 10% FBS/RPMI supplemented with 2 mM Glutamine. The plate of cells is incubated for about 24 hours at 37° C. after which it receives an equal volume of compound dilution per well making the total volume per well 200 μl. The compound is prepared at 2 times the desired highest final concentration and serially diluted in the normal growth media in a 96-well round bottom plate and then transferred to plate of cells. DMSO serves as the vector control up to 0.2% as final concentration. The cells are then incubated at 37° C. in a humidified 5% CO2 incubator.
Four days following dosing of compound, the media is 15 discarded and 200 μl/well of ice-cold 10% TCA (Trichloroacetic Acid) is added to fix cells. After 60 minutes at 4° C., the TCA is discarded and the plate is rinsed 5 times with water. The plate is then air-dried and 100 μl/well of 0.4% SRB (Sulforhodamine B from Sigma) 20 in 1% Acetic Acid is added to stain cells for 10 minutes at room temperature. The SRB is discarded and the plate is rinsed 5 times with 1% Acetic Acid. After the plate is completely dried, 100 μl/well of 10 mM Tris-base is added to solubilize the dye. After 5 to 10 minutes, the plate is read on a Dynatech ELISA Plate Reader at dual wavelengths at 570 nm and 630 nm.

[2] = H25 cells (NIH3T3 overexpressing Insulin Receptor), insulin stimulated, read-out: ELISA DATA: IR
[3] = 3T3/IGF-1R cells, IGF-1 stimulated, read-out: ELISA DATA: IGF-1R

T2 sequence (P08069 31-1367): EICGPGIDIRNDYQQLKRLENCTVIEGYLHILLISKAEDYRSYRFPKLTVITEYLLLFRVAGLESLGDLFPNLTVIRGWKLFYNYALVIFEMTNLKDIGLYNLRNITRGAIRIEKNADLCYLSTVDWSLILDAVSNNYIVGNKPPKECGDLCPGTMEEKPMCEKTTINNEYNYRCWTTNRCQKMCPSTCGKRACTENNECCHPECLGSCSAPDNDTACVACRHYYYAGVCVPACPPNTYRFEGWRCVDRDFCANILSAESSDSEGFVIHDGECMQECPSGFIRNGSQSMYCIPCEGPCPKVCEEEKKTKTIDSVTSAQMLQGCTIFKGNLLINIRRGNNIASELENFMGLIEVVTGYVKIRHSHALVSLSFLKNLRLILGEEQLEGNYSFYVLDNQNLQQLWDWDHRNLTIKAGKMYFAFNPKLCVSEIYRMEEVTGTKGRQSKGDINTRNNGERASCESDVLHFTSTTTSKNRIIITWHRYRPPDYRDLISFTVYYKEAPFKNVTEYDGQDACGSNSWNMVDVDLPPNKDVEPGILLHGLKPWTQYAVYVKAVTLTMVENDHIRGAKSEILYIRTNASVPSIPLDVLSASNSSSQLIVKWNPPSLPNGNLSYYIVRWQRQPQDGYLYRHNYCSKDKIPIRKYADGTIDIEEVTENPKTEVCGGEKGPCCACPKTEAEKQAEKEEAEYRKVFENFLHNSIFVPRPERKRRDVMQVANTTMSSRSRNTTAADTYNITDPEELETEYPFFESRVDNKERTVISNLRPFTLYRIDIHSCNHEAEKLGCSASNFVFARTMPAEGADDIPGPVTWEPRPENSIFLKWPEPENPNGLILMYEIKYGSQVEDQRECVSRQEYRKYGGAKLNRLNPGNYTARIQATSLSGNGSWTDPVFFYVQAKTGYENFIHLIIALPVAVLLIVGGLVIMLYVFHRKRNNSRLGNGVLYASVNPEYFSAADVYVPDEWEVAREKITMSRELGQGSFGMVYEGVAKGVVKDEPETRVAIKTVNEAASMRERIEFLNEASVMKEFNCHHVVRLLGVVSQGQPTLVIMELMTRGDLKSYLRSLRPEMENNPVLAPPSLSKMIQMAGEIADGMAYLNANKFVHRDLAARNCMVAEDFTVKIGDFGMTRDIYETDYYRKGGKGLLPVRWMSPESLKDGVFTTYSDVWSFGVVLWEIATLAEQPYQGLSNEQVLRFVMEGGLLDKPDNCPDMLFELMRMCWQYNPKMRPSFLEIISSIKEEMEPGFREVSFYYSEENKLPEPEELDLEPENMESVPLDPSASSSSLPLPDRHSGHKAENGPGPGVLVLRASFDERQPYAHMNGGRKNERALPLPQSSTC
T1 sequence (P06213 28-1382, species assumed): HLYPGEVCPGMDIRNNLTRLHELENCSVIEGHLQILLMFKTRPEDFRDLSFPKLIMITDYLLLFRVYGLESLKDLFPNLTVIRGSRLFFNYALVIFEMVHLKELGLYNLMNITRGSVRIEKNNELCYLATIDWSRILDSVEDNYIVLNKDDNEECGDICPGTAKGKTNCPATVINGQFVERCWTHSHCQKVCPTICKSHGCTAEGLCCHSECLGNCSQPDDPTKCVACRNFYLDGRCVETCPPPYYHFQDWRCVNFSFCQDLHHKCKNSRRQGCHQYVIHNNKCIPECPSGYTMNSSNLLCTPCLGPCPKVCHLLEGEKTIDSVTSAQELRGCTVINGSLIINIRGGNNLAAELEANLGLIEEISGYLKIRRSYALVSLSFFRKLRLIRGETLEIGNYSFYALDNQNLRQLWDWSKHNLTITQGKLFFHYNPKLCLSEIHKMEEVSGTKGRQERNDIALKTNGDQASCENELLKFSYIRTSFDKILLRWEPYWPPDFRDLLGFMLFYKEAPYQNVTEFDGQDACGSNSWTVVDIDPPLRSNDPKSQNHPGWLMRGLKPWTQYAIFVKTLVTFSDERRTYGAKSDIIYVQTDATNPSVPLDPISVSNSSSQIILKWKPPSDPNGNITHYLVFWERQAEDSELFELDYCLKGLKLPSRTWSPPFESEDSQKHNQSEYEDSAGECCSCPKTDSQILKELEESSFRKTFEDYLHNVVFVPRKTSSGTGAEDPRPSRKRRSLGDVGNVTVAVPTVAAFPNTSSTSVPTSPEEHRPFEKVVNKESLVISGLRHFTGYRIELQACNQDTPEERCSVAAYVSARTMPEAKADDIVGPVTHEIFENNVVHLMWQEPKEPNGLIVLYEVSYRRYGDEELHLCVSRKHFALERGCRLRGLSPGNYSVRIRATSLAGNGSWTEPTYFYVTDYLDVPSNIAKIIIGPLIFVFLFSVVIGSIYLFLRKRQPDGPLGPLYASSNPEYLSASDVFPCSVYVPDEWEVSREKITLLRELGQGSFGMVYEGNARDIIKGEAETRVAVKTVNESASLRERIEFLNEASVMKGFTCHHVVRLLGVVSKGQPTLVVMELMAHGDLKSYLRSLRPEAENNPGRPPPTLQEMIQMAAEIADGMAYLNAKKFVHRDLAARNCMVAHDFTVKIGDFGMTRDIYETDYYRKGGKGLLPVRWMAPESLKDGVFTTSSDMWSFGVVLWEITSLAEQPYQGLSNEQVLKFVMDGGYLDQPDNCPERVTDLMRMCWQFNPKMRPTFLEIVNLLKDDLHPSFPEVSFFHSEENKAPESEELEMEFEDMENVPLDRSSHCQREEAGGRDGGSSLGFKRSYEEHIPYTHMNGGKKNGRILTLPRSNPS

Row | SMILES | IC50 (Insulin Receptor; [2]) [µM] | IC50 (IGF-1R; [3]) [µM] | IC50 [1] [nM] | IC50 (Insulin Receptor) [µM] | IC50 (IGF-1R) [µM]
1 | CC(C)S(=O)(=O)c1csc(NC(=O)Nc2ccc(C(C)(C)C)cc2)c1Cl [Example Z1, N-[3-Chloro-4-(isopropylsulfonyl)thien-2-yl]-N'-(4-t-butylphenyl)urea] | > 100 | > 100 | 5000 | – | –
2 | CC(C)S(=O)(=O)c1csc(NC(=O)Nc2cc(C(F)(F)F)cc(C(F)(F)F)c2)c1Cl [Example Z2, N-[3-Chloro-4-(isopropylsulfonyl)thien-2-yl]-N'-(3,5-di-trifluoromethylphenyl)urea] | > 100 | > 100 | 1000 | – | –
3 | O=C(Nc1ccc(SC(F)(F)F)cc1)Nc1ccc(Oc2ccc(Cl)cc2Cl)nc1 [Example Z3] | – | – | 2000 | > 100 | 16.5
4 | N#Cc1ccc(NC(=S)Nc2ccc(S(=O)(=O)N3CCCCC3)cc2)cc1 [Example Z4, N-(4-Cyanophenyl)-N'-[4-[(piperid-1-yl)sulfonyl]phenyl]thiourea] | – | > 100 | 3000 | – | –

From patent publication US5773459A, “Urea- and thiourea-type compounds” (Sugen, Inc., priority 1995, dated 1998)
